From publication PMC11911254 (Pharmacological Reports, 2025)

Assay: Concentration of paracetamol and its metabolites in plasma, CSF and brain cortex by LC-MS/MS
Settings: for Concentration in CSF / Concentration in brain / Concentration in plasma: E19 rats; for concentration at 30 min: both, Sprague Dawley, rat, intraperitoneal, P4 rats
Protocol: Drug injection protocol is illustrated in Fig. 1.
Male and female postnatal P4 pups and 7–8 week-old non-pregnant females were used. […] In combination therapy experiments, this dose was accompanied by one of the 7 other drugs (Table 1). For all experiments, animals were terminally anesthetized 30 min after the drug injection using inhaled isoflurane (IsoFlo 100% w/w, Abbott Laboratories), and blood, CSF, and brain samples were collected. Blood was collected directly from the right cardiac ventricle, CSF from the cisterna magna, and cortical brain samples from the frontal/parietal lobes dorsal to the lateral ventricles as described previously.
Pregnant E19 dams were anesthetized with ip urethane injection (25% w/v urethane, Sigma, 1 ml/100 g body weight) and placed on a 39 °C heating pad in the supine position. An endotracheal catheter was inserted to maintain a clear airway. Catheters were inserted into the femoral vein and artery for iv drug administration and arterial blood sampling respectively. The cannula was flushed with 0.5 ml of heparinized saline (Hospira Inc, 5,000 units/ml) after drug administration and following each arterial blood sample. Following drug administration to the dams, fetuses were exteriorized and serially collected starting at 30 min post-maternal injection. […] At collection, the viability of each fetus was assessed (presence of a heartbeat, the colour of the umbilical vessels) and blood, CSF, and brain samples were taken along with a time-matched maternal blood sample from the femoral artery. At the end of the experiment, a final maternal blood sample was taken directly from the left cardiac ventricle, and CSF and brain samples were collected.
This method has been described previously for valproate, lamotrigine, and olanzapine and was applied in the present study. Simultaneous quantification was performed for all compounds in plasma, brain, and CSF samples following the addition of respective stable isotope-labeled internal standards.
Linear response range was determined in untreated control rat plasma for each compound at 0.1, 1, 10, 50, 100, 200, 400, and 800 µg/ml.

[1] = maternal iv paracetamol 15 mg/kg + cimetidine 11 mg/kg (PARA+CIM, n=10), median (IQR)
[2] = maternal iv paracetamol 15 mg/kg + digoxin 0.03 mg/kg (PARA+DIG, n=9), median (IQR)
[3] = maternal iv paracetamol 15 mg/kg + lamotrigine 6 mg/kg (PARA+LTG, n=10), median (IQR)
[4] = maternal iv paracetamol 15 mg/kg + olanzapine 0.15 mg/kg (PARA+OLZ, n=10), median (IQR), all values if <3 detected
[5] = maternal iv paracetamol 15 mg/kg + valproate 30 mg/kg (PARA+VPA, n=10), median (IQR), all values if <3 detected
[6] = maternal iv paracetamol 15 mg/kg monotherapy (PARA, n=10), median (IQR)

## CC(=O)Nc1ccc(O)cc1 [Paracetamol, reference compound]
[1]
  Concentration in CSF: 7.2 (1.7) µg/ml
  Concentration in brain: 10.2 (5.7) µg/ml
  Concentration in plasma: 7.6 (2.5) µg/ml
[2]
  Concentration in CSF: 6.5 (2.2) µg/ml
  Concentration in brain: 6.6 (3.0) µg/ml
  Concentration in plasma: 5.8 (2.2) µg/ml
[3]
  Concentration in CSF: 6.3 (3.4) µg/ml
  Concentration in brain: 8 (2.6) µg/ml
  Concentration in plasma: 6.2 (3.7) µg/ml
Maternal iv paracetamol 15 mg/kg + olanzapine 0.15 mg/kg (PARA+OLZ, n=10), median (IQR)
  Concentration in plasma: 4.1 (3.7) µg/ml
[4]
  Concentration in CSF: 4.7 (4.0) µg/ml
  Concentration in brain: 8.7 (3.9) µg/ml
Maternal iv paracetamol 15 mg/kg + olanzapine 0.15 mg/kg (PARA+OLZ, n=10), median (IQR), listed as paracetamol
  Concentration in plasma: 4.1 µg/mL
Maternal iv paracetamol 15 mg/kg + valproate 30 mg/kg (PARA+VPA, n=10), median (IQR)
  Concentration in CSF: 5.9 (2.1) µg/ml
[5]
  Concentration in brain: 6.9 (2.1) µg/ml
  Concentration in plasma: 6.0 (2.5) µg/ml
[6]
  Concentration in CSF: 8.0 (3.2) µg/ml
  Concentration in brain: 9.3 (5.0) µg/ml
  Concentration in plasma: 7.5 (2.9) µg/ml
Maternal iv paracetamol 15 mg/kg monotherapy (PARA, n=10), median (IQR), listed as paracetamol
  Concentration in plasma: 7.5 µg/mL
adults, any of the drugs investigated, Kruskal-Wallis test
  change in plasma concentration following combination therapy: no significant changes
CSF, 15 mg/kg, Concentration in CSF, 30 min after ip paracetamol 15 mg/kg monotherapy (PARA, n=4), median (IQR)
  concentration at 30 min: 7000 ng/mL
CSF, Concentration in CSF, 30 min after ip paracetamol 15 mg/kg + cimetidine 11 mg/kg (PARA+CIM, n=4), median (IQR)
  concentration at 30 min: 6200 ng/mL
CSF, Concentration in CSF, 30 min after ip paracetamol 15 mg/kg + digoxin 0.03 mg/kg (PARA+DIG, n=4), median (IQR)
  concentration at 30 min: 6300 ng/mL
CSF, Concentration in CSF, 30 min after ip paracetamol 15 mg/kg + fluvoxamine 1.5 mg/kg (PARA+FLX, n=4), median (IQR)
  concentration at 30 min: 9400 ng/mL
CSF, Concentration in CSF, 30 min after ip paracetamol 15 mg/kg + lamotrigine 6 mg/kg (PARA+LTG, n=5), median (IQR)
  concentration at 30 min: 7200 ng/mL
CSF, Concentration in CSF, 30 min after ip paracetamol 15 mg/kg + lithium 3.2 mg/kg (PARA+Li, n=4), median (IQR)
  concentration at 30 min: 4700 ng/mL
CSF, Concentration in CSF, 30 min after ip paracetamol 15 mg/kg + olanzapine 0.15 mg/kg (PARA+OLZ, n=4), median (IQR)
  concentration at 30 min: 5300 ng/mL
CSF, Concentration in CSF, 30 min after ip paracetamol 15 mg/kg + valproate 30 mg/kg (PARA+VPA, n=4), median (IQR)
  concentration at 30 min: 6400 ng/mL
Brain cortex, 15 mg/kg, Concentration in brain, 30 min after ip paracetamol 15 mg/kg monotherapy (PARA, n=4), median (IQR)
  concentration at 30 min: 8900 ng/mL
Brain cortex, Concentration in brain, 30 min after ip paracetamol 15 mg/kg + cimetidine 11 mg/kg (PARA+CIM, n=4), median (IQR)
  concentration at 30 min: 9000 ng/mL
Brain cortex, Concentration in brain, 30 min after ip paracetamol 15 mg/kg + digoxin 0.03 mg/kg (PARA+DIG, n=4), median (IQR)
  concentration at 30 min: 10300 ng/mL
Brain cortex, Concentration in brain, 30 min after ip paracetamol 15 mg/kg + fluvoxamine 1.5 mg/kg (PARA+FLX, n=4), median (IQR) or individual values
  concentration at 30 min: 8700 ng/mL
Brain cortex, Concentration in brain, 30 min after ip paracetamol 15 mg/kg + lamotrigine 6 mg/kg (PARA+LTG, n=5), median (IQR)
  concentration at 30 min: 9900 ng/mL
Brain cortex, Concentration in brain, 30 min after ip paracetamol 15 mg/kg + lithium 3.2 mg/kg (PARA+Li, n=4), median (IQR)
  concentration at 30 min: 7600 ng/mL
Brain cortex, Concentration in brain, 30 min after ip paracetamol 15 mg/kg + olanzapine 0.15 mg/kg (PARA+OLZ, n=4), median (IQR)
  concentration at 30 min: 6900 ng/mL
